≈ marks a conversion by molar mass, not a printed value.
Assays:
[1] = tested on: P. aeruginosa CDC-0090; assay: microbe, parasite or virus in culture; type: cell-based; conditions: Pseudomonas aeruginosa, CDC0090, read-out: Minimum inhibitory concentration, P. aeruginosa CDC-0090
[2] = tested on: N. gonorrhoeae WHO G; assay: Liquid broth MIC in Fastidious broth; conditions: Neisseria gonorrhoeae, read-out: Minimum Inhibitory Concentration, WHO G
[3] = tested on: A. baumannii CDC-0036; assay: microbe, parasite or virus in culture; type: cell-based; conditions: Acinetobacter baumannii, CDC0036, read-out: MIC, A. baumannii CDC-0036
[4] = tested on: P. aeruginosa CDC-0054; assay: microbe, parasite or virus in culture; type: cell-based; conditions: Pseudomonas aeruginosa, CDC0054, read-out: Minimum inhibitory concentration, P. aeruginosa CDC-0054
[5] = tested on: P. aeruginosa CDC-0110; assay: microbe, parasite or virus in culture; type: cell-based; conditions: Pseudomonas aeruginosa, CDC0110, read-out: Minimum inhibitory concentration, P. aeruginosa CDC-0110
[6] = tested on: B. humptydooensis ATCC BAA-2767; assay: microbe, parasite or virus in culture; type: cell-based; conditions: Burkholderia humptydooensis, ATCCBAA2767, read-out: Minimum inhibitory concentration (MIC), B. humptydooensis ATCC BAA-2767
[7] = tested on: N. gonorrhoeae WHO X; assay: Liquid broth MIC in Fastidious broth; conditions: Neisseria gonorrhoeae, read-out: Minimum Inhibitory Concentration, WHO X
[8] = tested on: N. gonorrhoeae FA1090; assay: Liquid broth MIC in Fastidious broth; conditions: Neisseria gonorrhoeae, FA1090, read-out: Minimum Inhibitory Concentration, FA 1090
Procedure: Additional antibacterial testing of the series was performed in 8 reference strains of N. gonorrhoeae (ATCC 49226, FA1090, MS 11, WHO G, WHO L, WHO M, WHO K, WHO X, WHO Z, WHO Q, CDC-0197). ATCC 49226, FA1090, MS11, WHO G, WHO L, and WHO M produce wild type or wild-type like PBP2. WHO K, WHO X, WHO Z, WHO Q, and CDC-0197 produce mosaic PBP2. Liquid broth-based assays were used for antibacterial testing of PBP inhibitors in Neisseria gonorrhoeae. Briefly, cryo-preserved bacterial cultures of clinical strains were streaked for isolation on Chocolate Agar (72 g/L (2×) GC Agar Base (BD #228950) and 2% (2×) Hemoglobin was autoclaved at 121° C. for 20 minutes to sterilize. Once cooled to ˜50° C. the 2×GC Agar Base and 2× Hemoglobin solutions are combined and 1% IsoVitaleX Enrichment (BD #211876) was added to the solution). Strains were incubated at 36° C. and 5% CO2 to allow growth of colonies, 24 hours before inoculum preparation. 2-fold serial dilutions of test compounds were conducted in a 96 well plate with a final volume of 75 μL per well at 2-fold the final desired concentration in Fastidious broth (Remel #R07664). For preparation of assay inoculum, a direct suspension was prepared by aseptically swabbing 10-15 colonies from agar plates into culture tubes containing 2 mL of fresh sterile saline. After the dilution plates were set up, direct suspensions were then diluted in a cuvette containing sterile saline and the optical density was measured at 600 nm. Inocula were diluted such that 75 μL of this culture in Fastidious broth results in a starting bacterial concentration of 5×10^5 CFU/mL when added to the dilution plates. The plates were incubated for ˜24 hours at 36° C. and 5% CO2.

[9] = tested on: A. baumannii CDC-0083; assay: microbe, parasite or virus in culture; type: cell-based; conditions: Acinetobacter baumannii, CDC0083, read-out: MIC, A. baumannii CDC-0083
[10] = tested on: N. gonorrhoeae ATCC 49226; assay: Liquid broth MIC in Fastidious broth; conditions: Neisseria gonorrhoeae, ATCC49226, read-out: Minimum Inhibitory Concentration, ATCC 49226
[11] = tested on: P. aeruginosa ATCC 27853; assay: microbe, parasite or virus in culture; type: cell-based; conditions: Pseudomonas aeruginosa, ATCC27853, read-out: Minimum inhibitory concentration, P. aeruginosa ATCC 27853
[12] = tested on: N. gonorrhoeae WHO M; assay: Liquid broth MIC in Fastidious broth; conditions: Neisseria gonorrhoeae, read-out: Minimum Inhibitory Concentration, WHO M
[13] = molecular target: T1, PBP3 from Pseudomonas aeruginosa (PAO1) (Pseudomonas aeruginosa, UniProt G3XD46); assay: Bocillin-FL fluorescence polarization competition binding, P. aeruginosa PBP3; conditions: Binding affinity to P. aeruginosa PBP3; fluorescence polarization competition binding assay using Bocillin-FL; read-out: P. aeruginosa PBP3 Potency
T1 construct: made in house
T1 sequence (G3XD46 whole entry): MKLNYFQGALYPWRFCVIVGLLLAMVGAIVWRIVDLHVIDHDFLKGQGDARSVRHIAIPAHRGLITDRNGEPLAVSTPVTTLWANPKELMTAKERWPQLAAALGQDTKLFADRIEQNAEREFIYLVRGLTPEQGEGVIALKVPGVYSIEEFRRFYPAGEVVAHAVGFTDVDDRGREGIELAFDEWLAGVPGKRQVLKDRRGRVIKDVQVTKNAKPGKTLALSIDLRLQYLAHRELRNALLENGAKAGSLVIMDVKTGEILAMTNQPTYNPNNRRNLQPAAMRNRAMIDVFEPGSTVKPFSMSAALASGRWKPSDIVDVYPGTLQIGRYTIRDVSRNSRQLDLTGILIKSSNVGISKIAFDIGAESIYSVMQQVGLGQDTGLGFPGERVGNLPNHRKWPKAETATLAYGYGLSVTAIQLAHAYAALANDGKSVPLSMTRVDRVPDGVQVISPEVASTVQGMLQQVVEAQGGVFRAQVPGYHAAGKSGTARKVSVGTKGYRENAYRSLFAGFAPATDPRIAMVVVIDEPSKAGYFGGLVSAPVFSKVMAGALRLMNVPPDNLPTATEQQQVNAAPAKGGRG
Summary of the method: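 Purified PBP was preincubated with inhibitor (E. coli PBP3 1.5 μM, 30 min; P. aeruginosa PBP3 0.75 μM, A. baumannii PBP3 0.2 μM and PBP1a 1 μM, 15 min), then Bocillin-FL (0.1 μM; 0.05 μM for PBP1a) added and FP read up to 60 min. EC50 = 50% loss of bound probe.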

With `O=C(NCCCS(=O)(=O)N1CCN(C(=O)NC(C(=O)N[C@H]2Cc3ccc(F)c(C(=O)O)c3OB2O)c2cc(F)c(O)c(O)c2Cl)C1=O)c1cccnc1` (stereo partly drawn) [Example 273, (3R)-3-(2-(2-chloro-5-fluoro-3,4-dihydroxyphenyl)-2-(3-((3-(nicotinamido)propyl)sulfonyl)-2-oxoimidazolidine-1-carboxamido)acetamido)-7-fluoro-2-hydroxy-3,4-dihydro-2H-benzo[e][1,2]oxaborinine-8-carboxylic acid] the MIC [1] was < 1 mg/L, the MIC [2] was 16 to 32 mg/L (≈ 20.5 to 41 µM) and the MIC [3] was 2 to 4 mg/L (≈ 2.56 to 5.12 µM). For the same compound, the MIC [4] was 2 to 4 mg/L (≈ 2.56 to 5.12 µM), the MIC [5] was < 1 mg/L and the MIC [6] was 2 to 4 mg/L (≈ 2.56 to 5.12 µM). For the same compound, the MIC [7] was > 64 mg/L, the MIC [8] was 4 to 8 mg/L (≈ 5.12 to 10.2 µM) and the MIC [9] was < 1 mg/L. The MIC [10] was 16 to 32 mg/L (≈ 20.5 to 41 µM), the MIC [11] was 2 to 4 mg/L (≈ 2.56 to 5.12 µM) and the MIC [12] was 16 to 32 mg/L (≈ 20.5 to 41 µM). The IC50 [13] was < 10 µM.

`O=C(NCCCS(=O)(=O)N1CCN(C(=O)NC(C(=O)N[C@H]2Cc3ccc(F)c(C(=O)O)c3OB2O)c2cc(F)c(O)c(O)c2Cl)C1=O)c1nccs1` (stereo partly drawn) [Example 274, (3R)-3-(2-(2-chloro-5-fluoro-3,4-dihydroxyphenyl)-2-(2-oxo-3-((3-(thiazole-2-carboxamido)propyl)sulfonyl)imidazolidine-1-carboxamido)acetamido)-7-fluoro-2-hydroxy-3,4-dihydro-2H-benzo[e][1,2]oxaborinine-8-carboxylic acid] gave an MIC [1] of 2 to 4 mg/L (≈ 2.54 to 5.08 µM), an MIC [2] of 16 to 32 mg/L (≈ 20.3 to 40.7 µM) and an MIC [3] of 2 to 4 mg/L (≈ 2.54 to 5.08 µM). For the same compound, the MIC [4] was 2 to 4 mg/L (≈ 2.54 to 5.08 µM), the MIC [5] was 2 to 4 mg/L (≈ 2.54 to 5.08 µM) and the MIC [6] was 2 to 4 mg/L (≈ 2.54 to 5.08 µM). The MIC [7] was > 64 mg/L, the MIC [8] was 4 to 8 mg/L (≈ 5.08 to 10.2 µM) and the MIC [9] was < 1 mg/L. For the same compound, the MIC [10] was 16 to 32 mg/L (≈ 20.3 to 40.7 µM), the MIC [11] was 2 to 4 mg/L (≈ 2.54 to 5.08 µM) and the MIC [12] was 16 to 32 mg/L (≈ 20.3 to 40.7 µM). The IC50 [13] was < 10 µM.

Compound `O=C(O)c1c(F)ccc2c1OB(O)[C@@H](NC(=O)C(NC(=O)N1CCN(S(=O)(=O)CCCNC(=O)[C@@H]3CCCN3)C1=O)c1cc(F)c(O)c(O)c1Cl)C2` (stereo partly drawn) [Example 275, (3R)-3-(2-(2-chloro-5-fluoro-3,4-dihydroxyphenyl)-2-(2-oxo-3-((3-((S)-pyrrolidine-2-carboxamido)propyl)sulfonyl)imidazolidine-1-carboxamido)acetamido)-7-fluoro-2-hydroxy-3,4-dihydro-2H-benzo[e][1,2]oxaborinine-8-carboxylic acid] has an MIC [1] of 8 to 16 mg/L (≈ 10.4 to 20.7 µM), an MIC [2] of 16 to 32 mg/L (≈ 20.7 to 41.4 µM) and an MIC [3] of 2 to 4 mg/L (≈ 2.59 to 5.18 µM). The MIC [4] was 8 to 16 mg/L (≈ 10.4 to 20.7 µM), the MIC [5] was < 1 mg/L and the MIC [6] was < 1 mg/L. The MIC [7] was > 64 mg/L, the MIC [8] was 4 to 8 mg/L (≈ 5.18 to 10.4 µM) and the MIC [9] was 2 to 4 mg/L (≈ 2.59 to 5.18 µM). The MIC [10] was 16 to 32 mg/L (≈ 20.7 to 41.4 µM), the MIC [11] was 2 to 4 mg/L (≈ 2.59 to 5.18 µM) and the MIC [12] was 16 to 32 mg/L (≈ 20.7 to 41.4 µM). For the same compound, the IC50 [13] was < 10 µM.

`O=C(NCCCS(=O)(=O)N1CCN(C(=O)NC(C(=O)N[C@H]2Cc3ccc(F)c(C(=O)O)c3OB2O)c2cc(F)c(O)c(O)c2Cl)C1=O)Nc1ccc(O)cc1` (stereo partly drawn) [Example 276, (3R)-3-(2-(2-chloro-5-fluoro-3,4-dihydroxyphenyl)-2-(3-((3-(3-(4-hydroxyphenyl)ureido)propyl)sulfonyl)-2-oxoimidazolidine-1-carboxamido)acetamido)-7-fluoro-2-hydroxy-3,4-dihydro-2H-benzo[e][1,2]oxaborinine-8-carboxylic acid] was tested, and the MIC [1] was < 1 mg/L, the MIC [2] was 16 to 32 mg/L (≈ 19.7 to 39.5 µM) and the MIC [3] was 2 to 4 mg/L (≈ 2.47 to 4.93 µM). For the same compound, the MIC [4] was 8 to 16 mg/L (≈ 9.87 to 19.7 µM), the MIC [5] was 2 to 4 mg/L (≈ 2.47 to 4.93 µM) and the MIC [6] was 32 to 64 mg/L (≈ 39.5 to 78.9 µM). For the same compound, the MIC [7] was > 64 mg/L, the MIC [8] was 1 to 2 mg/L (≈ 1.23 to 2.47 µM) and the MIC [9] was < 1 mg/L. For the same compound, the MIC [10] was 16 to 32 mg/L (≈ 19.7 to 39.5 µM), the MIC [11] was 2 to 4 mg/L (≈ 2.47 to 4.93 µM) and the MIC [12] was 4 to 8 mg/L (≈ 4.93 to 9.87 µM). For the same compound, the IC50 [13] was < 10 µM.

— patent US20240270762A1, “PENICILLIN-BINDING PROTEIN INHIBITORS” (priority 2021, published 2024)
